Test results published in patent publication US7803374B2, “Targeted atherosclerosis treatment” (Barnes-Jewish Hospital, priority 2004, dated 2010).
Like-named read-outs stand apart in the source and are kept apart here.

B1: endostatin: anti-angiogenic agent (protein, UniProt P39060 1572-1754, looked up)
Endostatin: HSHRDFQPVLHLVALNSPLSGGMRGIRGADFQCFQQARAVGLAGTFRAFLSSRLQDLYSIVRRADRAAVPIVNLKDELLFPSWEALFSGSEGPLKPGARIFSFDGKDVLRHPTWPQKSVWHGSDPNGRRLTESYCETWRTEAPSATGQASSLLGGRLLGQSAASCHHAYIVLCIENSFMTASK
modifications: Endostatin
notes: anti-angiogenic agent

What was measured:
Apo E−/− mice = conditions: cited from earlier work; for foam cell deposition or fibromuscular lesion development: early atherogenesis; for effectiveness in later treatment: later periods of treatment (32 to 48 weeks)
[1] = high dose; cited from earlier work
[2] = In vitro dissolution: release of fumagillin from nanoparticles by dialysis; assay type: physicochemical; conditions: generally, due to hydrophobic nature
Method: Fumagillin nanoparticle emulsions (250 μl) were dialyzed in 60,000 MW cutoff dialysis tubing against 3.5 ml of releasing medium (0.9% NaCl, 0.2 mg/ml human serum albumin and 0.05% sodium azide) and continuously agitated at 37° C. The releasing medium was replaced daily and analyzed for released fumagillin concentration. Fumagillin was analyzed by reverse-phase HPLC (Waters Corporation). Chromatography was performed using a Waters Novapak C18, 60 Å, 4 μm reversed-phase column (3.9×150 mm) with an isocratic 50% acetonitrile/0.05% of phosphoric acid mobile phase (1 ml/min at ambient temperature).

[3] = treated for 4 months (20 to 36 weeks)

Molecule | intimal vessels and atheroma expansion (Apo E−/− mice; 30 mg per kg every other day for 13 weeks) | foam cell deposition or fibromuscular lesion development (Apo E−/− mice) | effectiveness in later treatment (Apo E−/− mice) | intimal vessels and atheroma expansion (Apo E−/− mice; [3]) | side effects [1] | fumagillin released (general statement) [2] [%]
CO[C@@H]1[C@H](OC(=O)NC(=O)CCl)CC[C@]2(CO2)[C@H]1[C@@]1(C)O[C@@H]1CC=C(C)C [TNP-470] | reduction in intimal vessels and diminished atheroma expansion | Neither endostatin nor TNP-470 altered | less effective | reduced number of intimal vessels and diminished atheroma expansion | serious side effects such as neurocognitive toxicity | –
CO[C@@H]1[C@H](OC(=O)/C=C/C=C/C=C/C=C/C(=O)O)CC[C@]2(CO2)[C@H]1[C@@]1(C)O[C@@H]1CC=C(C)C [fumagillin] | – | – | – | – | – | < 10
B1 | – | Neither endostatin nor TNP-470 altered | less effective | reduced number of intimal vessels and diminished atheroma expansion | – | –
